# According to ChEMBL document CHEMBL5131475, “Metallo-β-lactamases inhibitor fisetin attenuates meropenem resistance in NDM-1-producing Escherichia coli” (Eur J Med Chem, 2022):
# Key:
# Escherichia coli [1] = assay: Antibacterial activity against pET28a-NDM-1 positive Escherichia coli BL21(DE3) isolates assessed as streptomycin MIC incubated for 18 to 24 hrs by CLSI based broth microdilution method; assay type: functional; details: time 18-24 hrs
# Escherichia coli [2] = assay: Antibacterial activity against NDM-1 positive Escherichia coli ZC-YN3 isolates assessed as imipenem MIC incubated for 18 to 24 hrs by CLSI based broth microdilution method; assay type: functional; details: time 18-24 hrs
# Escherichia coli [3] = assay: Synergistic antibacterial activity against pET28a NDM-1 positive Escherichia coli BL21(DE3) isolates assessed as fractional Inhibitory concentration index incubated for 18 to 24 hrs in presence of doxycycline by CLSI based broth microdilution method; assay type: functional; details: time 18-24 hrs
# Escherichia coli [4] = assay: Antibacterial activity against NDM-1 positive Escherichia coli ZC-YN3 isolates assessed as ampicillin MIC incubated for 18 to 24 hrs by CLSI based broth microdilution method; assay type: functional; details: time 18-24 hrs
# Bacteria = assay: Binding affinity to NDM-1 M248A mutant (unknown origin) assessed as binding free energy by fluorescence quenching method
# Escherichia coli [5] = assay: Antibacterial activity against NDM-1 positive Escherichia coli ZC-YN3 isolates assessed as colistin MIC incubated for 18 to 24 hrs by CLSI based broth microdilution method; assay type: functional; details: time 18-24 hrs
# Escherichia coli [6] = assay: Antibacterial activity against pET28a-NDM-1 positive Escherichia coli BL21(DE3) isolates assessed as tetracycline MIC incubated for 18 to 24 hrs by CLSI based broth microdilution method; assay type: functional; details: time 18-24 hrs
# Escherichia coli [7] = assay: Synergistic antibacterial activity against NDM-1 negative Escherichia coli BL21(DE3) (pET28a) isolates assessed as fractional Inhibitory concentration index incubated for 18 to 24 hrs in presence of meropenem by CLSI based broth microdilution method; assay type: functional; details: time 18-24 hrs
# Escherichia coli [8] = assay: Antibacterial activity against pET28a-NDM-1 positive Escherichia coli BL21(DE3) isolates assessed as colistin MIC incubated for 18 to 24 hrs by CLSI based broth microdilution method; assay type: functional; details: time 18-24 hrs
# Escherichia coli [9] = assay: Synergistic antibacterial activity against pET28a NDM-1 positive Escherichia coli BL21(DE3) isolates assessed as fractional Inhibitory concentration index incubated for 18 to 24 hrs in presence of spectinomycin by CLSI based broth microdilution method; assay type: functional; details: time 18-24 hrs
# Escherichia coli [10] = assay: Synergistic antibacterial activity against pET28a NDM-1 positive Escherichia coli BL21(DE3) isolates assessed as fractional Inhibitory concentration index incubated for 18 to 24 hrs in presence of kanamycin by CLSI based broth microdilution method; assay type: functional; details: time 18-24 hrs
# Escherichia coli [11] = assay: Antibacterial activity against NDM-1 positive Escherichia coli ZC-YN3 isolates assessed as cefotaxime MIC incubated for 18 to 24 hrs by CLSI based broth microdilution method; assay type: functional; details: time 18-24 hrs
# Escherichia coli [12] = assay: Synergistic antibacterial activity against NDM-1 positive Escherichia coli ZC-YN3 isolates assessed as fractional Inhibitory concentration index incubated for 18 to 24 hrs in presence of vancomycin by CLSI based broth microdilution method; assay type: functional; details: time 18-24 hrs
# Escherichia coli [13] = assay: Synergistic antibacterial activity against NDM-1 positive Escherichia coli ZC-YN3 isolates assessed as fractional Inhibitory concentration index incubated for 18 to 24 hrs in presence of doxycycline by CLSI based broth microdilution method; assay type: functional; details: time 18-24 hrs
# Escherichia coli [14] = assay: Antibacterial activity against pET28a-NDM-1 positive Escherichia coli BL21(DE3) isolates assessed as ampicillin MIC incubated for 18 to 24 hrs by CLSI based broth microdilution method; assay type: functional; details: time 18-24 hrs
smiles,measurement,setting,value
O=c1c(O)c(-c2ccc(O)c(O)c2)oc2cc(O)ccc12 [FISETIN],MIC,Escherichia coli [1],42.7 µg/mL
same,MIC,Escherichia coli [2],6.67 µg/mL
same,fractional inhibitory concentration index (FICI),Escherichia coli [3],0.96
same,MIC,Escherichia coli [4],853 µg/mL
same,Activity,Bacteria,-16.2 kcal/mol
same,MIC,Escherichia coli [5],1.33 µg/mL
same,MIC,Escherichia coli [6],427 µg/mL
same,fractional inhibitory concentration index (FICI),Escherichia coli [7],1.13
same,MIC,Escherichia coli [8],1.67 µg/mL
same,fractional inhibitory concentration index (FICI),Escherichia coli [9],0.96
same,fractional inhibitory concentration index (FICI),Escherichia coli [10],1.13
same,MIC,Escherichia coli [11],512 µg/mL
same,fractional inhibitory concentration index (FICI),Escherichia coli [12],0.96
same,fractional inhibitory concentration index (FICI),Escherichia coli [13],0.96
same,MIC,Escherichia coli [14],683 µg/mL
